This note sets out measurements from ChEMBL document CHEMBL1201862, “PubChem BioAssay data set” (2004).

Molecules are shown by their SMILES.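 Interpolation was linear, between the two tested concentrations surrounding the appropriate level; five concentrations were tested over 48 hours in 96-well plates. At the GI50, growth is halved.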 Activity calls are given as the source filed them. Rule as the data show it: active = GI50 up to about 1.1 µM and inactive = higher.

What all share (test): NCI anticancer screen, dose series, 48 h
In assay [1] the test system is SK-MEL-5.
The test system of assay [2] is UO-31.
Assay [3] has as its system U-251.
Assay [4] concerns SF-268.
The subject of assay [5] is ACHN.
The subject of assay [6] is PC-3.
For assay [7], the system named is SW-620.
For assay [8], the system named is HT-29.
Assay [9] has as its system OVCAR-8.
Assay [10] deals with SF-539.
Assay [11] relates to NCI-H522.
The subject of assay [12] is UACC-257.
Assay [13] relates to UACC-62.
Assay [14] relates to NCI-H226.
Assay [15] deals with HOP-92.
Assay [16] relates to NCI-H23.
Assay [17] concerns Hs-578T.
Assay [18] has as its system SK-MEL-28.
The test system of assay [19] is OVCAR-5.
Assay [20] deals with MCF7.

Turning to `CN(C)C/C=C(/c1ccc(Br)cc1)c1cccnc1`, the GI50 is 19.7 µM (inactive) in assay [1]; 42.8 µM (inactive) in assay [2]; 98.4 µM (inactive) in [3]; 65.8 µM (inactive) in [4]; > 100 µM (inactive) in assay [5]; > 100 µM (inactive) in assay [6]. The GI50 was > 100 µM (inactive) in [7]; 78.5 µM (inactive) in [8]; > 100 µM (inactive) in [9]; > 100 µM (inactive) in [10]; 56.4 µM (inactive) in assay [11]; 18.2 µM (inactive) in assay [12]. Further, the GI50 in [13] was 19.6 µM (inactive); in assay [14], > 100 µM (inactive); in assay [15], 64.6 µM (inactive); in assay [16] it was > 100 µM (inactive); in assay [17] it was 48 µM (inactive); in [18], 17.9 µM (inactive). The values for the GI50 in assay [19] and in assay [20] were > 100 µM (inactive) and 63.8 µM (inactive), respectively.
For `CC(C)=CCC[C@H](C)[C@H]1CC[C@@H](C)c2cc(O)c(C)cc21`, the GI50 is 16.2 µM (inactive) in assay [1]; 14 µM (inactive) in assay [2]; 17.1 µM (inactive) in assay [3]; 16.8 µM (inactive) in assay [4]; 16.8 µM (inactive) in [5]; 17.4 µM (inactive) in [6]. The GI50 was 23.1 µM (inactive) in assay [7]; 20.6 µM (inactive) in assay [8]; 18.5 µM (inactive) in assay [9]; 17.8 µM (inactive) in assay [10]; 17.4 µM (inactive) in assay [11]; 17.4 µM (inactive) in assay [12]. Further, the GI50 in assay [13] is 14.5 µM (inactive); in assay [14] it was 18 µM (inactive); in assay [15] it was 16.7 µM (inactive); in assay [16] it was 18.1 µM (inactive); in assay [17] it was 19.9 µM (inactive); in assay [18], 18.5 µM (inactive). In addition, the GI50 in assay [19] was 16.1 µM (inactive); in assay [20] it was 17.5 µM (inactive).
For `O=C1CSC(c2cccc([N+](=O)[O-])c2)N1c1ccc(-c2ccc(-n3c(-c4ccccc4)nc4ccccc4c3=O)cc2)cc1` (stereo not given), the GI50 in assay [1] was 29.1 µM (inactive); in [2], 18.5 µM (inactive); in assay [3], 33.5 µM (inactive); in [4], 41.1 µM (inactive); in [5], 27 µM (inactive); in assay [6] it was 21.9 µM (inactive). Further, the GI50 in assay [7] is 40 µM (inactive); in assay [8], 33.4 µM (inactive); in assay [9] it was 40.7 µM (inactive); in assay [10], 46.5 µM (inactive); in assay [11], 25.6 µM (inactive); in [12], 83.2 µM (inactive). In addition, the GI50 was 28.8 µM (inactive) in assay [13]; 44.1 µM (inactive) in assay [14]; > 100 µM (inactive) in assay [15]; 59.8 µM (inactive) in assay [16]; 49.1 µM (inactive) in assay [17]; 43.6 µM (inactive) in assay [18]. The GI50 is > 100 µM (inactive) in [19] and 17.3 µM (inactive) in assay [20].
Turning to `O=c1[nH]c2c(c(=O)[nH]1)SSC2`, the GI50 is 13.8 µM (inactive) in assay [1]; 11.8 µM (inactive) in [2]; 11.8 µM (inactive) in assay [3]; 3.67 µM (inactive) in assay [4]; 26.5 µM (inactive) in assay [5]; 24 µM (inactive) in assay [6]. The GI50 in assay [7] was 7.19 µM (inactive); in assay [8], 19.6 µM (inactive); in assay [9], 4.16 µM (inactive); in assay [10] it was 3.14 µM (inactive); in assay [11] it was 17.3 µM (inactive); in [12], 4.99 µM (inactive). The GI50 in [13] is 3.03 µM (inactive); in assay [14], 19.4 µM (inactive); in assay [15], 2.51 µM (inactive); in assay [16] it was 12.7 µM (inactive); in assay [17], 24.2 µM (inactive); in assay [18], 5.79 µM (inactive). The GI50 in [19] was 16.6 µM (inactive); in assay [20], 17.4 µM (inactive).
With `O=C(O)CCC(NC(=O)c1ccc(Nc2nc3cc(C(F)(F)F)ccc3nc2C(=O)O)cc1)C(=O)O` (stereo not given), the GI50 in [1] was 79.8 µM (inactive); in [2], > 100 µM (inactive); in [3], > 100 µM (inactive); in assay [4], > 100 µM (inactive); in assay [5], > 100 µM (inactive); in assay [6] it was > 100 µM (inactive). The GI50 in assay [7], in [8], in [9], in assay [10], in assay [11] and in [12] was > 100 µM (inactive) each time. Besides, the GI50 in [13], in assay [14], in assay [15], in assay [16], in assay [17] and in assay [18] was > 100 µM (inactive) throughout. Besides, the GI50 in [19] and in [20] was > 100 µM (inactive) throughout.
As to `C=CCNC1=C2C[C@@H](C)C[C@H](OC)[C@H](O)[C@@H](C)/C=C(\C)[C@H](OC(N)=O)[C@@H](OC)/C=C\C=C(/C)C(=O)NC(=CC1=O)C2=O` [TANESPIMYCIN], the GI50 in assay [1] is 0.0259 µM (active); in [2], 0.428 µM (active); in [3] it was 0.158 µM (active); in assay [4], 0.593 µM (active); in assay [5] it was 0.127 µM (active); in [6] it was 0.047 µM (active). In addition, the GI50 is 0.279 µM (active) in assay [7]; 0.0113 µM (active) in assay [8]; 0.0607 µM (active) in assay [9]; 0.0428 µM (active) in assay [10]; 0.0431 µM (active) in [11]; 0.0532 µM (active) in assay [12]. For the same compound, the GI50 in assay [13] is 0.0326 µM (active); in assay [14] it was 4.49 µM (inactive); in [15] it was 3.69 µM (inactive); in [16], 0.014 µM (active); in [17] it was 0.575 µM (active); in assay [18], 0.396 µM (active). Moreover, the GI50 is 0.177 µM (active) in assay [19] and 0.0137 µM (active) in [20].
